Laboratory results reported in US20260250318A1, “COMPOSITIONS AND METHODS FOR CROSSING THE BLOOD BRAIN BARRIER” (VOYAGER THERAPEUTICS, INC., priority 2022, published 2026).

Assays:
[1] = system: brains, heart, liver, muscle, and DRG of the NHPs; experiment: Maturation of TTM-001 and TTM-002 capsids, NGS enrichment in NHP tissues; format: in vivo; conditions: relative to AAV9 control
Summary of the method: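 Variants carry mutations within and flanking the loop IV peptide insert: positions 450–466 were triplet-randomized, while positions 449–466 received low-frequency point mutations. The combined pool went into two NHPs, and each peptide was scored by NGS enrichment ratio against AAV9.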

brain = experiment: Matured TTM-001 and TTM-002 variants, NGS enrichment in mouse brain; format: in vivo, mice; conditions: relative to AAV9 control
[2] = NGS fold-enrichment of RNA, NHP brain
[3] = NGS fold-enrichment, NHP liver DNA
[4] = NGS fold-enrichment, NHP liver RNA
[5] = NGS fold-enrichment, NHP muscle
[6] = NGS fold-enrichment, mouse brain
[7] = NGS fold-enrichment, DRG of NHPs
[8] = NGS fold-enrichment, RNA, brain of NHPs
[9] = NGS fold-enrichment, heart of NHPs
[10] = NGS fold-enrichment, liver DNA of NHPs
[11] = NGS fold-enrichment, liver RNA of NHPs
[12] = NGS fold-enrichment, muscle of NHPs
[13] = NGS fold-enrichment, brain of mice
[14] = NGS fold-enrichment of matured AAV capsid variants, NHP brain, RNA

Row | Sequence | Fold Enrichment relative to AAV9, Brain (NHP) [1, 2] | Fold Enrichment relative to AAV9, DRG (NHP) ([1]; NGS fold-enrichment, NHP DRG) | Fold Enrichment relative to AAV9, Heart (NHP) ([1]; NGS fold-enrichment, NHP heart) | Fold Enrichment relative to AAV9, Liver DNA (NHP) [1, 3] | Fold Enrichment relative to AAV9, Liver RNA (NHP) [1, 4] | Fold Enrichment relative to AAV9, Muscle (NHP) [1, 5] | Fold Enrichment relative to AAV9, Brain (Mouse) (brain; [6]) | other results
1 | KSINGHDSPHKSGQRQHT | 80.132 fold | 0.000 fold | 0.357 fold | 0.000 fold | 0.000 fold | 0.000 fold | 9.851 fold | 
2 | KTINGHDSPHKSGQSKQA | 101.460 fold | 0.000 fold | 0.222 fold | 0.114 fold | 0.185 fold | 0.000 fold | 7.510 fold | 
3 | KTINGGGSPHSKSQNQLT | 82.231 fold | 0.000 fold | 0.070 fold | 0.498 fold | 0.000 fold | 0.000 fold | 126.986 fold | Fold Enrichment relative to AAV9, DRG (NHP) [1, 7]: 0.000 fold; Fold Enrichment relative to AAV9, Brain (NHP) [1, 8]: 82.231 fold; Fold Enrichment relative to AAV9, Heart (NHP) [1, 9]: 0.070 fold; Fold Enrichment relative to AAV9, Liver DNA (NHP) [1, 10]: 0.498 fold; Fold Enrichment relative to AAV9, Liver RNA (NHP) [1, 11]: 0.000 fold; Fold Enrichment relative to AAV9, Muscle (NHP) [1, 12]: 0.000 fold; Fold Enrichment relative to AAV9, Brain (Mouse) (brain; [13]): 126.986 fold
4 | KTVNRNGSPHSKAQNQQT | 133.016 fold | 0.000 fold | 0.416 fold | 0.000 fold | 0.000 fold | 0.000 fold | 85.361 fold | Fold Enrichment relative to AAV9, DRG (NHP) [1, 7]: 0.000 fold; Fold Enrichment relative to AAV9, Brain (NHP) [1, 8]: 133.016 fold; Fold Enrichment relative to AAV9, Heart (NHP) [1, 9]: 0.416 fold; Fold Enrichment relative to AAV9, Liver DNA (NHP) [1, 10]: 0.000 fold; Fold Enrichment relative to AAV9, Liver RNA (NHP) [1, 11]: 0.000 fold; Fold Enrichment relative to AAV9, Muscle (NHP) [1, 12]: 0.000 fold; Fold Enrichment relative to AAV9, Brain (Mouse) (brain; [13]): 85.361 fold
5 | KTIYGHDSPHKSVQNQLT | 92.381 fold | 0.000 fold | 0.043 fold | 0.016 fold | 0.103 fold | 0.000 fold | 12.323 fold | 
6 | KNVVGHDSPHKSGQNQQT | 75.330 fold | 0.000 fold | 0.024 fold | 0.049 fold | 0.063 fold | 0.000 fold | 8.077 fold | 
7 | KTVNAHDSPHKSGQNQLT | 79.137 fold | 0.000 fold | 0.233 fold | 0.045 fold | 0.753 fold | 0.178 fold | 29.254 fold | 
8 | KGVLGSGSPHSKAQNQQT |  |  |  |  |  |  |  | Fold Enrichment relative to AAV9, Brain (NHP) [1, 14]: 54.472 fold; Fold Enrichment relative to AAV9, DRG (NHP) ([1]; NHP DRG): 0.000 fold; Fold Enrichment relative to AAV9, Heart (NHP) ([1]; NHP heart): 0.007 fold; Fold Enrichment relative to AAV9, Liver DNA (NHP) ([1]; NHP liver, DNA): 0.189 fold; Fold Enrichment relative to AAV9, Liver RNA (NHP) ([1]; NHP liver, RNA): 0.359 fold; Fold Enrichment relative to AAV9, Muscle (NHP) ([1]; NHP muscle): 0.027 fold; Fold Enrichment relative to AAV9, Brain (Mouse) (brain; mouse brain): 145.740 fold
9 | KTWQNSGSPHSKAQNQQT |  |  |  |  |  |  |  | Fold Enrichment relative to AAV9, Brain (NHP) [1, 14]: 55.245 fold; Fold Enrichment relative to AAV9, DRG (NHP) ([1]; NHP DRG): 0.000 fold; Fold Enrichment relative to AAV9, Heart (NHP) ([1]; NHP heart): 0.000 fold; Fold Enrichment relative to AAV9, Liver DNA (NHP) ([1]; NHP liver, DNA): 0.265 fold; Fold Enrichment relative to AAV9, Liver RNA (NHP) ([1]; NHP liver, RNA): 0.111 fold; Fold Enrichment relative to AAV9, Muscle (NHP) ([1]; NHP muscle): 0.000 fold; Fold Enrichment relative to AAV9, Brain (Mouse) (brain; mouse brain): 114.258 fold
10 | KTINGHDSPHKSVQNHLN | 196.758 fold | 0.000 fold | 0.000 fold | 0.000 fold | 0.000 fold | 0.000 fold | 14.557 fold | 
11 | KTVNGNGSPHSKAQNQHT | 78.849 fold | 0.000 fold | 0.000 fold | 0.045 fold | 0.000 fold | 0.000 fold | 54.086 fold | Fold Enrichment relative to AAV9, DRG (NHP) [1, 7]: 0.000 fold; Fold Enrichment relative to AAV9, Brain (NHP) [1, 8]: 78.849 fold; Fold Enrichment relative to AAV9, Heart (NHP) [1, 9]: 0.000 fold; Fold Enrichment relative to AAV9, Liver DNA (NHP) [1, 10]: 0.045 fold; Fold Enrichment relative to AAV9, Liver RNA (NHP) [1, 11]: 0.000 fold; Fold Enrichment relative to AAV9, Muscle (NHP) [1, 12]: 0.000 fold; Fold Enrichment relative to AAV9, Brain (Mouse) (brain; [13]): 54.086 fold
12 | KTVNGSGSPHSKSQNQLT | 101.327 fold | 0.000 fold | 0.035 fold | 0.025 fold | 0.000 fold | 0.000 fold | 80.716 fold | Fold Enrichment relative to AAV9, DRG (NHP) [1, 7]: 0.000 fold; Fold Enrichment relative to AAV9, Brain (NHP) [1, 8]: 101.327 fold; Fold Enrichment relative to AAV9, Heart (NHP) [1, 9]: 0.035 fold; Fold Enrichment relative to AAV9, Liver DNA (NHP) [1, 10]: 0.025 fold; Fold Enrichment relative to AAV9, Liver RNA (NHP) [1, 11]: 0.000 fold; Fold Enrichment relative to AAV9, Muscle (NHP) [1, 12]: 0.000 fold; Fold Enrichment relative to AAV9, Brain (Mouse) (brain; [13]): 80.716 fold
13 | KTEFGHDSPHKSGQNQQT | 77.245 fold | 0.000 fold | 0.124 fold | 0.063 fold | 0.561 fold | 0.000 fold | 16.337 fold | 
14 | KTINGSGSPHSKAQNNDQ |  |  |  |  |  |  |  | Fold Enrichment relative to AAV9, Brain (NHP) [1, 14]: 53.226 fold; Fold Enrichment relative to AAV9, DRG (NHP) ([1]; NHP DRG): 0.000 fold; Fold Enrichment relative to AAV9, Heart (NHP) ([1]; NHP heart): 0.000 fold; Fold Enrichment relative to AAV9, Liver DNA (NHP) ([1]; NHP liver, DNA): 0.046 fold; Fold Enrichment relative to AAV9, Liver RNA (NHP) ([1]; NHP liver, RNA): 0.593 fold; Fold Enrichment relative to AAV9, Muscle (NHP) ([1]; NHP muscle): 0.000 fold; Fold Enrichment relative to AAV9, Brain (Mouse) (brain; mouse brain): 59.664 fold
15 | KTINGSGSPHSKARGLQT |  |  |  |  |  |  |  | Fold Enrichment relative to AAV9, Brain (NHP) [1, 14]: 52.275 fold; Fold Enrichment relative to AAV9, DRG (NHP) ([1]; NHP DRG): 0.000 fold; Fold Enrichment relative to AAV9, Heart (NHP) ([1]; NHP heart): 0.000 fold; Fold Enrichment relative to AAV9, Liver DNA (NHP) ([1]; NHP liver, DNA): 1.425 fold; Fold Enrichment relative to AAV9, Liver RNA (NHP) ([1]; NHP liver, RNA): 1.235 fold; Fold Enrichment relative to AAV9, Muscle (NHP) ([1]; NHP muscle): 0.036 fold; Fold Enrichment relative to AAV9, Brain (Mouse) (brain; mouse brain): 169.881 fold
